A melting point compilation (Tetko et al.; mined from patent text by program, amines drawn as free bases though some values may be those of a salt)

First: C[C@@H](C(=O)OCCCCNc1cccc2c1C(=O)c1ccccc1C2=O)N(C)C(=O)OC(C)(C)C
Second: CCCCCCNC(=O)c1ccc(N2N=C(CCC)C(=CNc3ccccc3CC)C2=O)cc1
The melting point of the first is higher: 62 °C for the first, 46.7 °C for the second.

First: COc1ccc(C(=O)Cc2c(Cl)cncc2Cl)c2c1OC(C)(C)O2
Second: CC1(C)Cc2cccc(Oc3c(Cl)cc(NC(=S)NC(=O)c4c(F)cccc4F)cc3Cl)c2O1
The melting point of the first is lower: 133 to 134 °C for the first, 153 to 154 °C for the second.

First: COc1ccc(-c2oc3ccc(CC(=O)N4CCN(c5ccccc5)CC4)cc3c2SC)cc1OC
Second: COc1cc2cc3c(Nc4ccc(Oc5ccccc5)c(Cl)c4)c(C#N)cnc3cc2cc1OCCN1CCOCC1
The melting point of the first is lower: 160 °C for the first, 190 to 194 °C for the second.

Compared with `C=CC12COc3cc(Cl)ccc3C1=NN(C(=O)Nc1ccc(C(F)(F)F)cc1)C2` (configuration not stated), `O=C1CCC(c2ccc(C(F)(F)F)cc2)=NN1` is higher in melting point: 157 to 161 °C for the first, 177 to 178 °C for the second.

First: CCOC(=O)C=C1CCc2c(c(OC)c(OC)c(OC)c2OC)CC1
Second: COC=C(C(=O)OC)c1c(OCc2cc(Cl)ccc2Cl)c(C)nn1C
The melting point of the first is lower: 61 to 63 °C for the first, 94 to 96 °C for the second.

First: CCCc1nn(C)c2c1N=C(c1cc(CCC(=O)O)ccc1OCC)NC2
Second: O=C(O)CCCCN1CCN(C2=Nc3ccccc3Sc3ccc(Cl)cc32)CC1
The melting point of the first is lower: 165 to 167 °C for the first, 220 to 221 °C for the second.

First: OC1CSC(Oc2cncc(-c3ccc(C(F)(F)F)cc3)c2)C(O)C1O (configuration not stated)
Second: FC(F)(F)Cn1cc(C#Cc2cccc(OCC3CC3)c2)cn1
The melting point of the first is higher: 218 to 219 °C for the first, 63 to 65 °C for the second.

Compared with `O=C(NC12CC3CC(CC(C3)C1)C2)c1nc(Br)n(-c2ccccc2)c1Br`, `COc1cc(Br)ccc1C12CC3CC(CC(C3)C1)C2` is lower in melting point: 228 to 231 °C for the first, 159 to 160 °C for the second.

`Cc1ccc(S(=O)(=O)N(C)c2ccc(Cl)cc2N=O)cc1` and `CCOC(=O)CCC(=O)c1cccc(C(=O)c2ccc(Cl)cc2)c1N` cannot be ordered by melting point: 113 to 114 °C for the first, 112 to 115 °C for the second.

First: NC(=S)NN=C(CCCOC(=O)Nc1ccccc1)c1ccccc1
Second: Nc1c(C(=O)c2ccccc2)oc2ccccc12
The melting point of the first is higher: 140 to 142 °C for the first, 122 to 124 °C for the second.

First: COc1ccccc1-c1cn(-c2ccccc2)nc1O
Second: COC(=O)CCc1cc2cc(C(C)=O)ccc2n1S(=O)(=O)c1ccccc1
The melting point of the first is higher: 165 to 167 °C for the first, 122 to 127 °C for the second.

Compared with `COCC(OC(C)=O)C1CC(O)C2(C)CCC3C(CCC4=CC(=O)C=C(C)C43C)C12` (configuration not stated), `COc1c(N2CC3CCCC3(N)C2)c(F)cc2c(=O)c(C(=O)O)cn(C3CC3F)c12` (configuration not stated) is lower in melting point: 203 to 204 °C for the first, 169 to 172 °C for the second.

Compared with `CCc1cc2c(cc1F)c(C#N)c(-c1ccc(S(=O)(=O)N[C@@H](C)C(F)(F)F)cn1)n2-c1ncccn1`, `Cn1c(C(F)(F)F)c(C#N)c2ccc(Cl)cc21` is lower in melting point: 195 to 198 °C for the first, 142 to 145 °C for the second.

First: O=C(O)Cn1cc(Cc2nc3c(F)c(F)cc(F)c3s2)c2ccc(-c3ccccc3)cc21
Second: O=C(O)c1ccc(-c2n[nH]c(-c3ccccc3)n2)cc1
The melting point of the first is lower: 156 to 159 °C for the first, over 300 °C for the second.

First: O=C(C(Cl)Cl)N1CCN(c2ccc([N+](=O)[O-])cc2)CC1
Second: Clc1cccc(N2CCN(CCCc3nnn[nH]3)CC2)c1
The melting point of the first is lower: 155 °C for the first, 162 to 164 °C for the second.

Compared with `C#Cc1ccc(-c2c(C)nnc(Cl)c2-c2c(F)cc(F)cc2F)cc1`, `Cc1cc(CN(C)c2cc(-c3ccc(Cl)cc3)nn2C)cc(C)c1OC(C)(C)C(=O)O` is lower in melting point: 174 to 175 °C for the first, 158 °C for the second.

Compared with `COC(=O)COc1ccc(Cn2c(-c3ccc(OC4CCCC4)cc3)c(C)c3cc(OCc4ccccc4)ccc32)cc1`, `CCc1cc(OCc2ccc(-c3ccccc3-c3nnnn3-c3ccc([N+](=O)[O-])cc3)cc2)c2ccccc2n1` is higher in melting point: 96 to 98 °C for the first, 204 to 206 °C for the second.

Compared with `CNC(=O)c1ccc(C(=O)O)cc1`, `CCC(C(C)=CC(CNC(=O)c1ccc(N)nc1)=NO)[N+](=O)[O-]` (configuration not stated) is lower in melting point: 270 °C for the first, 190 to 191 °C for the second.

First: O=C1OC(CNC(=S)C(F)F)CN1c1ccc(N2CCOCC2)c(F)c1 (configuration not stated)
Second: [N-]=[N+]=NCC1CN(c2ccc(SC(c3ccccc3)(c3ccccc3)c3ccccc3)c(F)c2)C(=O)O1 (configuration not stated)
The melting point of the first is higher: 125 to 127 °C for the first, 77 to 79 °C for the second.

First: CN1CCC(C2Cc3ccccc3C(=O)N2)CC1 (configuration not stated)
Second: CC(=O)NC1=CCc2ccccc21
The melting point of the first is higher: 139 to 141 °C for the first, 137 to 138 °C for the second.

First: Cc1nc2n(c(=O)c1CCN1CCC(=C(c3ccccc3)c3ccccc3)CC1)CCCS2
Second: c1ccc(CN2CCN(Cc3cc4ccccc4[nH]3)CC2)cc1
The melting point of the first is higher: 176 °C for the first, 157 to 159 °C for the second.

First: COCCOCC(=O)N1CCC(Oc2cc3ncnc(Nc4cccc(Cl)c4F)c3cc2OC)CC1
Second: COc1cc2c(cc1OC)-c1nccc3cccc(c13)C2=O
The melting point of the first is lower: 110 to 111 °C for the first, 250 °C for the second.

First: O=C(O)C(OCCC1CCN(c2ccncc2)CC1)Oc1ccccc1 (configuration not stated)
Second: Fc1ccc(Cn2c(CC3CCN(Cc4ccccc4)CC3)nc3cncnc32)cc1
The melting point of the first is higher: 247 to 249 °C for the first, 136 °C for the second.

First: CN(C(=O)C(C)(C)C)C1(c2ccccc2)CCNCC1
Second: CCC(=O)O[C@@H]1[C@@H](c2ccccc2)Nc2c(ccn3c(C)c(C)nc23)[C@H]1OCCOC
The melting point of the first is higher: 125 °C for the first, 106 to 107 °C for the second.

Compared with `CC(C#N)(Cn1c(C(F)(F)F)nc2ccccc21)NC(=O)c1ccc(OC(F)(F)F)cc1` (configuration not stated), `O=C(Cc1ccccc1)Nc1cc(-c2ccc(Cl)cc2)[nH]n1` is higher in melting point: 194 °C for the first, 222 to 224 °C for the second.

First: CCCOc1cc(-c2ccc3c(c2)C=C(C(=O)Nc2ccc(CN(C)C4CCOCC4)cc2)CCS3(=O)=O)ccc1C#N
Second: CCc1coc(Cc2ccc(NC(=O)/C=C/c3cnn(C)c3-c3ccc(F)cc3)cc2)n1
The melting point of the first is higher: 201 to 203 °C for the first, 174 to 175 °C for the second.

First: COc1ccccc1NC(=O)Nc1nc(Oc2ccc3ccccc3c2)nc(N(CCC(=O)O)Cc2cccc(C)c2)n1
Second: Cc1c(-c2ccnc(-c3ccc4c(n3)CCCC4)n2)ccc2ccccc12
The melting point of the first is lower: 105 to 125 °C for the first, 156 to 158 °C for the second.

First: CCCCCCCC/C=C\CCCCCCCC(=O)Nc1nc(CC(=O)O)cs1
Second: COc1cc([N+](=O)[O-])c2nccc(C)c2c1OCCCCCCCCCc1ccccc1
The melting point of the first is higher: 106 to 108 °C for the first, 56 to 56.5 °C for the second.

Compared with `COC(=O)c1cccc2c(I)c(OC)ccc12`, `COc1cc2c(cc1OC)/C(=C\c1ccc(OP(=O)(O)O)cc1)C(=O)N2` is higher in melting point: 98 to 99 °C for the first, 218 to 220 °C for the second.

Compared with `Cc1cc2c(cc1N1CCc3ccccc31)OC(=O)C2C` (configuration not stated), `COc1cccc(C2NC(=O)N(C(C)C)c3cc(C)ccc32)c1` (configuration not stated) is lower in melting point: 176 to 178 °C for the first, 167 to 169 °C for the second.

First: COc1ccc(/C=C/C(=O)OCC(=O)COC(=O)/C=C/c2ccc(OC)cc2)cc1
Second: COc1ccc(C(=CC=Cc2ccc(N(c3ccc(C)cc3)c3ccc(C)cc3)cc2)c2ccc(OC)cc2)cc1
The melting point of the first is higher: 146 to 148 °C for the first, 133 to 135 °C for the second.

First: CCCCN(CC1Cc2cc(Cl)cc(Cl)c2O1)C(=O)n1cncn1 (configuration not stated)
Second: CC(CCNC(=O)c1cc2cc(Cl)ccc2[nH]1)n1ccnc1 (configuration not stated)
The melting point of the first is lower: 122 to 124 °C for the first, 210 °C for the second.

Compared with `Cn1ncnc1COc1nn2c(-c3ccccc3F)nnc2cc1C1(F)CCC1`, `CCOC(=O)c1cnn(C)c1C(=O)Nc1ccn2nc(-c3cccc(F)c3)nc2c1` is higher in melting point: 154 to 162 °C for the first, 246 to 249 °C for the second.

First: COc1cc(C=O)ccc1OCc1nc(-c2cccnc2)oc1C
Second: COc1ccc(-n2c(=O)c3c(c4cccnc42)OCC3)cc1
The melting point of the first is lower: 164 to 165 °C for the first, 282 to 284 °C for the second.

First: O=C(NCc1ccc(Cl)cc1)c1cn(C2CC2)c2oc(CCl)cc2c1=O
Second: COc1ccc(Cn2c(=O)[nH]c3ccc(Cl)cc3c2=O)cc1
The melting point of the first is lower: 174 to 176 °C for the first, 252 to 253 °C for the second.

Compared with `N=C(NS(=O)(=O)c1ccc(F)cc1)N1CC(c2ccccc2)C(c2ccc(Cl)cc2)=N1` (configuration not stated), `CCN(CC)CCNc1cc(Sc2ccc(Cl)cc2)nc(-c2ccccc2)n1` is lower in melting point: 214 to 215 °C for the first, 83.5 to 86 °C for the second.

Compared with `ClC(=NNc1ccccc1)c1ccc(Cl)c(Cl)c1`, `N#Cc1c(Cl)nc2ccccc2c1Cl` is higher in melting point: 121 to 124 °C for the first, 157 °C for the second.

Compared with `COc1ccc2c(c1)C(c1ccc([N+](=O)[O-])cc1)=NNC(=O)C2`, `O=[N+]([O-])c1ccc(Cl)cc1Sc1cccc2cnccc12` is lower in melting point: 282 °C for the first, 151 to 153 °C for the second.

First: CC(O)Cn1nc(-c2cnc3[nH]cc(C(=O)NC(C)C(=O)N4CC(C#N)C4)c3n2)c2ccc(Cl)cc21 (configuration not stated)
Second: CC(C)Cn1c(CONS(C)(=O)=O)nc2c(N)nc3ccccc3c21
The melting point of the first is lower: 160 to 165 °C for the first, 215 to 216 °C for the second.

Compared with `COc1cc(Br)c(Br)cc1C=NNC(=N)NN=Cc1cc(Br)c(Br)cc1OC`, `CCCCC(CC)n1nnc2c(Nc3c(Br)cc(OC)cc3OC)nc(C)cc21` (configuration not stated) is lower in melting point: 265 to 267 °C for the first, 127 to 128 °C for the second.

First: [N-]=[N+]=NC(=O)C=Cc1cccc2[nH]ccc12
Second: Cc1ccc(/C=C/c2ccccc2[N+](=O)[O-])c([N+](=O)[O-])c1
The melting point of the first is lower: 105 to 106 °C for the first, 170 to 171 °C for the second.

First: N#Cc1cc(Cl)c(N)c(I)c1
Second: CC(O)Cc1cc(N)cc([N+](=O)[O-])c1N (configuration not stated)
The melting point of the first is higher: 121 to 123 °C for the first, 115 °C for the second.

Compared with `CC(C)(C)OC(=O)NC1CCCCCC=CC2CC2(C(=O)NS(=O)(=O)C2CC2)NC(=O)C2CC(OC(=O)c3ccc4ccccc4c3)CN2C1=O` (configuration not stated), `c1cnc2c(OCCn3ccc4ccc5c(c43)CCNCC5)cccc2c1` is lower in melting point: 156 to 158 °C for the first, 129 to 132 °C for the second.

First: c1coc(-c2nc(COc3ccc(CCCn4ccnc4)cc3)co2)c1
Second: O=c1c(Br)c(OCc2ccc(Cl)cc2F)cnn1-c1ccc(Cl)c(Cl)c1
The melting point of the first is lower: 92 to 93 °C for the first, 172 to 173 °C for the second.

First: COc1nc(-c2cc(C)c(OCCCc3cc(C)no3)c(C)c2)no1
Second: Cc1cc2c(-c3cccc(N)c3)c(CC(=O)Nc3ccc(Cl)cc3C(F)(F)F)c(=O)oc2cc1Cl
The melting point of the first is lower: 64.5 to 65.5 °C for the first, 206 to 207 °C for the second.

Compared with `CCOC(=O)c1cc(C#N)c(C=O)nc1N1CCCCC1`, `CCOc1ccc([N+](=O)[O-])c(NN2CCN(C)CC2)c1` is higher in melting point: 62 to 64 °C for the first, 145 °C for the second.

Compared with `COC(=O)C1CCc2onc(-c3ccc(Cl)cc3)c2CC1` (configuration not stated), `FC(F)(F)c1ccc(CN2CCNc3ncc(I)cc32)o1` is higher in melting point: 70 to 71 °C for the first, 153 to 154 °C for the second.

Compared with `CN(C(=O)CCS(C)=O)c1nnc(-c2cccnc2)s1` (configuration not stated), `C=CCN(C)C(=O)Nc1cc(C(C)(C)C)on1` is lower in melting point: 138 to 140 °C for the first, 90 to 91 °C for the second.

`CCC(=N)NC(=O)OC` showed a melting point of 87 to 93 °C.
